Test results from ChEMBL document CHEMBL5137056, “Micromonospora: A Prolific Source of Bioactive Secondary Metabolites with Therapeutic Potential” (J Med Chem, 2022).
In brackets after ≈: the same amount, converted by molar mass.

How the values were obtained:
[1] = Inhibition of gastrulation in starfish embryo; type: functional; details: Marthasterias glacialis
KB = assay: Cytotoxicity against human KB cells assessed as reduction in cell viability; type: functional; details: read-out: ED50 (the source's name)
Staphylococcus aureus [2] = assay: Antibacterial activity against Staphylococcus aureus NBRC12732 assessed as bacterial growth inhibition; type: functional
[3] = test system: Human immunodeficiency virus; assay: Antiviral activity agianst HIV assessed as viral growth inhibition; type: functional, organism-based; details: Human immunodeficiency virus 1
Staphylococcus aureus [4] = assay: Antibacterial activity methicillin-resistant Staphylococcus aureus ATCC 43300 assessed as bacterial growth inhibition by microdilution method; type: functional
[5] = molecular target: NAD(P)H dehydrogenase [quinone] 1 (Mus musculus) (UniProt Q64669); assay: Activation of QR1 in mouse hepatoma cells incubated for 48 hrs by MTT assay; type: cell-based; details: Hepatoma cell line, filed as activator
[6] = Upregulation of glutathione level in mouse Hepa1c1c7 cells assessed as drug concentration required for double induction incubated for 48 hrs in presence of NADPH by Ellman method; type: functional
[7] = Inhibition of Staphylococcus tyrS using tyrosine as substrate preincubated for 10 mins by substrate addition and measured after 2 hrs; set-up: species or system Staphylococcus sp.

Sequence of NAD(P)H dehydrogenase [quinone] 1 (Mus musculus) (Q64669 whole entry): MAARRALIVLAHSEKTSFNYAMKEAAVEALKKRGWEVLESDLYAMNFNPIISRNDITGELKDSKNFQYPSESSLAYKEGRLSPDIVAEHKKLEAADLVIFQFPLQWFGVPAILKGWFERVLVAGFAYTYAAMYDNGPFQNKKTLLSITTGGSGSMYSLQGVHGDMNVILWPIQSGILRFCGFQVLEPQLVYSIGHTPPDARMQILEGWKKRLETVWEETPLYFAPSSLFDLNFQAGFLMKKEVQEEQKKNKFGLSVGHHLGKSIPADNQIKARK

Molecule C=C/C=C/[C@H]1O[C@@](O)([C@@H](C)[C@H](O)[C@H](C)[C@H]2OC(=O)/C(OC)=C/C(C)=C/[C@@H](C)[C@@H](O)[C@@H](C)C/C(C)=C/C=C/[C@@H]2OC)C[C@@H](O)[C@@H]1C has an MIC [1] of 0.01 µg/mL (≈ 0.0158 µM).

COc1n/c(=C\c2ccccc2)c(=O)[nH]/c1=C\c1ccccc1 gave an EC50 (KB) of 0.94 µg/mL (≈ 3.09 µM).

For CC1=C[C@@]2(C)C/C=C/[C@@H](C)[C@@H]3C=C[C@@H]4C[C@@H](C)CC[C@H]4[C@]3(C)C(=O)C3=C(O)[C@@]2(C[C@H]1C[C@@H](C)O)OC3=O, the MIC (Staphylococcus aureus [2]) was 1.6 µg/mL (≈ 3.15 µM).

With CCC(C)CCCCCCCC[C@@H](O)CC(=O)N[C@@H](CCC(=O)O)C(=O)N[C@@H](CC(C)C)C(=O)N[C@H](CC(C)C)C(=O)N[C@H](C(=O)N[C@@H](CC(=O)O)C(=O)N[C@H](CC(C)C)C(=O)N[C@@H](CC(C)C)C(=O)O)C(C)C (stereo partly specified) the IC50 [3] was 5.3 µM.

CNC1=CC(=O)c2c(cnc(C)c2C)C1=O [MANSOURAMYCIN A] showed an MIC (Staphylococcus aureus [4]) of 8 µg/mL.

Molecule C=C/C=C/[C@H]1O[C@@](O)([C@@H](C)[C@H](O)[C@H](C)[C@H]2OC(=O)/C(OC)=C/C(C)=C/[C@@H](C)[C@@H](O)[C@@H](C)C/C(C)=C/C=C/[C@@H]2OC)C[C@@H](OC(=O)/C=C/C(=O)NC2=C(O)CCC2=O)[C@@H]1C has an MIC [1] of 0.01 µg/mL (≈ 0.0121 µM).

CC[C@H]1C[C@@H](C)C(=O)/C=C/[C@]2(C)O[C@H]2[C@H](C)[C@@H](CC)OC(=O)C[C@@H](O)[C@H](C)[C@H]1O[C@@H]1O[C@@H](C)[C@H](O)[C@@H](O)[C@H]1O showed a CD [5] of 10.1 µM and a CD [6] of 27.7 µM.

In the case of N[C@@H](Cc1ccc(O)cc1)C(=O)N[C@H](C(=O)O)[C@H]1[C@H](O)[C@]2(O)CO[C@@H]([C@@H]2O)N1O, the IC50 [7] is reported as < 1 nM.

For CC(C)CCCCCCCC[C@@H](O)CC(=O)N[C@@H](CCC(=O)O)C(=O)N[C@@H](CC(C)C)C(=O)N[C@H](CC(C)C)C(=O)N[C@H](C(=O)N[C@@H](CC(=O)O)C(=O)N[C@H](CC(C)C)C(=O)N[C@@H](CC(C)C)C(=O)O)C(C)C, the IC50 [3] was 5.3 µM.

C[C@H]1CC[C@@H]2[C@H](C=C[C@H]3[C@H](C)/C=C/C[C@]4(C)C=C(CO)[C@H](C[C@@H](C)O)C[C@]45OC(=O)C(=C5O)C(=O)[C@@]23C)C1 [MAKLAMICIN] gave an MIC (Staphylococcus aureus [2]) of 13 µg/mL (≈ 24.8 µM).
